Reference: ChEMBL document CHEMBL1154827, “Acetylcholinesterase inhibitory pyridine alkaloids of the leaves of Senna multijuga” (J Nat Prod, 2010)

Columns and labels:
[1] = target: Acetylcholinesterase (Electrophorus electricus) (UniProt O42275); experiment: Inhibition of electric eel AChE assessed as purple zones of inhibition after 20 mins by TLC bioautography
[2] = target: Acetylcholinesterase (Electrophorus electricus) (UniProt O42275); experiment: Inhibition of electric eel AChE at 350 […] by microplate assay

Chain of Acetylcholinesterase (Electrophorus electricus) (O42275 24-633 limits assumed): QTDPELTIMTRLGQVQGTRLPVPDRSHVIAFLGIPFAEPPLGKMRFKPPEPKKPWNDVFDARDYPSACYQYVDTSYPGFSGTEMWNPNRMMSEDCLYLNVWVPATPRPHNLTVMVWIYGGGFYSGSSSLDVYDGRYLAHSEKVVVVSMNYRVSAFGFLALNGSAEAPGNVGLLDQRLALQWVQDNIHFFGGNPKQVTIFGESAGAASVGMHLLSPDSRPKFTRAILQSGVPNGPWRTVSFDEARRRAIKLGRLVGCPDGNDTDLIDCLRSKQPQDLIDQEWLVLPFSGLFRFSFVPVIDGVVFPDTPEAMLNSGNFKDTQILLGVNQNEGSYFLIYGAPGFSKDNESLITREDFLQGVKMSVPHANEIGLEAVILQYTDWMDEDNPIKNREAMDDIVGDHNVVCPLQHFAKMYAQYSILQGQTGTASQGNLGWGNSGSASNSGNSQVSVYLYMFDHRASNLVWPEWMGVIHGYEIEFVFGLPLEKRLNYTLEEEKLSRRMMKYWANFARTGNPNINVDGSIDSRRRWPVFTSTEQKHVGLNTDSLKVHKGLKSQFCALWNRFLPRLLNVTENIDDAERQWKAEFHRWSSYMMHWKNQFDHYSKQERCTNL

Row | Structure (SMILES) | INH [1] [µg] | inhibition [2] [%]
1 | Cc1nc(CCCCCCC(=O)CCCCCO)ccc1O | 0.18 | 30
2 | C[C@@H]1O[C@@H](OC[C@H]2O[C@@H](Oc3c(-c4ccc(O)c(O)c4)oc4cc(O)cc(O)c4c3=O)[C@H](O)[C@@H](O)[C@@H]2O)[C@H](O)[C@H](O)[C@H]1O | > 100 | 
3 | CNC(=O)Oc1ccc2c(c1)[C@]1(C)CCN(C)[C@@H]1N2C | 0.05 | 87
4 | CCCCCC(=O)CCCCCCc1ccc(O)c(C)n1 | 0.75 | 13
